Inconclusive results and toxic doses are left out. How the source made its calls: active means survival T/C of 150% or more; inactive means T/C below 125% in these data.
Test system: CD2F1 mice, L1210 leukemia ip, survival T/C
Test: NCI In Vivo Anticancer Drug Screen. Data for tumor model L1210 Leukemia (intraperitoneal) in CD2F1 (CDF1) mice
Details: higher = longer survival
How it was run: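 Compound-dosed mice with transplantable tumor versus matched vehicle controls; endpoint ratio T/C reported.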

[1] = endpoint: mean survival time, dose: 100.0 mg/kg/injection, schedule: Q04DX003 (ip), vehicle: saline with Tween-80
[2] = endpoint: mean survival time, dose: 200.0 mg/kg/injection, schedule: Q04DX003 (ip), vehicle: saline with Tween-80
[3] = endpoint: mean survival time, dose: 400.0 mg/kg/injection, schedule: Q04DX003 (ip), vehicle: saline with Tween-80
[4] = endpoint: mean survival time, dose: 100.0 mg/kg/injection, schedule: Q04DX002 (ip), vehicle: saline with Tween-80
[5] = endpoint: mean survival time, dose: 200.0 mg/kg/injection, schedule: Q04DX002 (ip), vehicle: saline with Tween-80
[6] = endpoint: mean survival time, dose: 25.0 mg/kg/injection, schedule: Q01DX009 (ip), vehicle: saline
[7] = endpoint: mean survival time, dose: 100.0 mg/kg/injection, schedule: Q01DX009 (ip), vehicle: saline

Measured: T/C

CC(C)(C)OC(=O)NC(CSCc1ccccc1)C(=O)Oc1ccc([N+](=O)[O-])cc1 (centres undefined)
inactive: [1] 95 % of control | [2] 90 % of control | [3] 86 % of control

O=P(c1ccccc1)(c1ccccc1)c1ccccc1 (tested in a mixture with another compound)
inactive: endpoint: mean survival time, dose: 12.5 mg/kg/injection, schedule: Q01DX009 (ip), vehicle: other 100 % of control | endpoint: mean survival time, dose: 25.0 mg/kg/injection, schedule: Q01DX009 (ip), vehicle: other 100 % of control | endpoint: mean survival time, dose: 50.0 mg/kg/injection, schedule: Q01DX009 (ip), vehicle: other 101 % of control | endpoint: mean survival time, dose: 100.0 mg/kg/injection, schedule: Q01DX009 (ip), vehicle: other 96 % of control | endpoint: mean survival time, dose: 200.0 mg/kg/injection, schedule: Q01DX009 (ip), vehicle: other 103 % of control

NC(=O)c1cc(NCCN2CCCCC2)c([N+](=O)[O-])cc1[N+](=O)[O-]
inactive: [4] 95 % of control | [5] 95 % of control | endpoint: mean survival time, dose: 400.0 mg/kg/injection, schedule: Q04DX002 (ip), vehicle: saline with Tween-80 95 % of control

NC(CCC(=O)NC(CS)C(=O)NCC(=O)O)C(=O)O (centres undefined)
inactive: endpoint: median survival time, dose: 25.0 mg/kg/injection, schedule: Q01DX009 (ip), vehicle: saline 100 % of control | endpoint: median survival time, dose: 50.0 mg/kg/injection, schedule: Q01DX009 (ip), vehicle: saline 110 % of control | endpoint: median survival time, dose: 100.0 mg/kg/injection, schedule: Q01DX009 (ip), vehicle: saline 104 % of control | endpoint: median survival time, dose: 200.0 mg/kg/injection, schedule: Q01DX009 (ip), vehicle: saline 104 % of control | endpoint: median survival time, dose: 400.0 mg/kg/injection, schedule: Q01DX009 (ip), vehicle: saline 94 % of control

O=C1c2ccccc2C(=O)C1c1cc2ccccc2cn1
inactive: endpoint: mean survival time, dose: 50.0 mg/kg/injection, schedule: Q04DX002 (ip), vehicle: saline with Tween-80 91 % of control | endpoint: mean survival time, dose: 100.0 mg/kg/injection, schedule: Q01DX001 (ip), vehicle: saline with Tween-80 87 % of control | [4] 95 % of control | endpoint: mean survival time, dose: 200.0 mg/kg/injection, schedule: Q01DX001 (ip), vehicle: saline with Tween-80 91 % of control | [5] 91 % of control

C=CC[n+]1cccc2ccccc21
inactive: [1] 111 % of control

N#CC1CC2C=CC1C2 (centres undefined)
inactive: endpoint: mean survival time, dose: 5.0 mg/kg/injection, schedule: Q01DX009 (ip), vehicle: saline 98 % of control | endpoint: mean survival time, dose: 5.0 mg/kg/injection, schedule: Q04DX003 (ip), vehicle: saline 95 % of control | endpoint: mean survival time, dose: 10.0 mg/kg/injection, schedule: Q01DX009 (ip), vehicle: saline 98 % of control | endpoint: mean survival time, dose: 10.0 mg/kg/injection, schedule: Q04DX003 (ip), vehicle: saline 97 % of control | endpoint: mean survival time, dose: 20.0 mg/kg/injection, schedule: Q01DX009 (ip), vehicle: saline 87 % of control | endpoint: mean survival time, dose: 20.0 mg/kg/injection, schedule: Q04DX003 (ip), vehicle: saline 100 % of control

Cc1cc2nc(CC(O)(C(F)(F)F)C(F)(F)F)oc2cc1C
inactive: endpoint: mean survival time, dose: 100.0 mg/kg/injection, schedule: Q01DX009 (ip), vehicle: saline with Tween-80 91 % of control | endpoint: mean survival time, dose: 200.0 mg/kg/injection, schedule: Q01DX009 (ip), vehicle: saline with Tween-80 92 % of control | endpoint: mean survival time, dose: 400.0 mg/kg/injection, schedule: Q01DX009 (ip), vehicle: saline with Tween-80 96 % of control

O=c1[nH][nH]c2nccnc12
inactive: endpoint: mean survival time, dose: 12.5 mg/kg/injection, schedule: Q01DX005 (ip), vehicle: water 93 % of control | endpoint: mean survival time, dose: 25.0 mg/kg/injection, schedule: Q01DX005 (ip), vehicle: water 93 % of control | endpoint: mean survival time, dose: 50.0 mg/kg/injection, schedule: Q01DX005 (ip), vehicle: water 96 % of control | endpoint: mean survival time, dose: 100.0 mg/kg/injection, schedule: Q01DX005 (ip), vehicle: water 98 % of control | endpoint: mean survival time, dose: 200.0 mg/kg/injection, schedule: Q01DX005 (ip), vehicle: water 101 % of control

N#CC(C(=O)c1ccccc1)c1ccccc1 (centres undefined)
inactive: endpoint: mean survival time, dose: 75.0 mg/kg/injection, schedule: Q01DX001 (ip), vehicle: other 100 % of control | endpoint: mean survival time, dose: 150.0 mg/kg/injection, schedule: Q01DX001 (ip), vehicle: other 101 % of control | endpoint: mean survival time, dose: 300.0 mg/kg/injection, schedule: Q01DX001 (ip), vehicle: other 106 % of control

Cc1ccccc1[As](c1ccccc1C)c1ccccc1C
inactive: [6] 86 % of control | [7] 86 % of control

CN=NCCO
inactive: [6] 104 % of control | endpoint: mean survival time, dose: 50.0 mg/kg/injection, schedule: Q01DX009 (ip), vehicle: saline 96 % of control | endpoint: mean survival time, dose: 100.0 mg/kg/injection, schedule: Q01DX001 (ip), vehicle: saline 94 % of control | [7] 100 % of control | endpoint: mean survival time, dose: 200.0 mg/kg/injection, schedule: Q01DX001 (ip), vehicle: saline 94 % of control

Nc1ccc([N+](=O)[O-])c(S(=O)(=O)O)c1
inactive: [1] 95 % of control | [2] 95 % of control | [3] 89 % of control

From PubChem BioAssay AID256 (DTP/NCI, 2004)
